Calls of active or inactive are those of the source.
How the values were obtained:
[1] = target: T1, Apoptotic protease-activating factor 1 (Homo sapiens, UniProt O14727); format: functional
T1 sequence (O14727 whole entry): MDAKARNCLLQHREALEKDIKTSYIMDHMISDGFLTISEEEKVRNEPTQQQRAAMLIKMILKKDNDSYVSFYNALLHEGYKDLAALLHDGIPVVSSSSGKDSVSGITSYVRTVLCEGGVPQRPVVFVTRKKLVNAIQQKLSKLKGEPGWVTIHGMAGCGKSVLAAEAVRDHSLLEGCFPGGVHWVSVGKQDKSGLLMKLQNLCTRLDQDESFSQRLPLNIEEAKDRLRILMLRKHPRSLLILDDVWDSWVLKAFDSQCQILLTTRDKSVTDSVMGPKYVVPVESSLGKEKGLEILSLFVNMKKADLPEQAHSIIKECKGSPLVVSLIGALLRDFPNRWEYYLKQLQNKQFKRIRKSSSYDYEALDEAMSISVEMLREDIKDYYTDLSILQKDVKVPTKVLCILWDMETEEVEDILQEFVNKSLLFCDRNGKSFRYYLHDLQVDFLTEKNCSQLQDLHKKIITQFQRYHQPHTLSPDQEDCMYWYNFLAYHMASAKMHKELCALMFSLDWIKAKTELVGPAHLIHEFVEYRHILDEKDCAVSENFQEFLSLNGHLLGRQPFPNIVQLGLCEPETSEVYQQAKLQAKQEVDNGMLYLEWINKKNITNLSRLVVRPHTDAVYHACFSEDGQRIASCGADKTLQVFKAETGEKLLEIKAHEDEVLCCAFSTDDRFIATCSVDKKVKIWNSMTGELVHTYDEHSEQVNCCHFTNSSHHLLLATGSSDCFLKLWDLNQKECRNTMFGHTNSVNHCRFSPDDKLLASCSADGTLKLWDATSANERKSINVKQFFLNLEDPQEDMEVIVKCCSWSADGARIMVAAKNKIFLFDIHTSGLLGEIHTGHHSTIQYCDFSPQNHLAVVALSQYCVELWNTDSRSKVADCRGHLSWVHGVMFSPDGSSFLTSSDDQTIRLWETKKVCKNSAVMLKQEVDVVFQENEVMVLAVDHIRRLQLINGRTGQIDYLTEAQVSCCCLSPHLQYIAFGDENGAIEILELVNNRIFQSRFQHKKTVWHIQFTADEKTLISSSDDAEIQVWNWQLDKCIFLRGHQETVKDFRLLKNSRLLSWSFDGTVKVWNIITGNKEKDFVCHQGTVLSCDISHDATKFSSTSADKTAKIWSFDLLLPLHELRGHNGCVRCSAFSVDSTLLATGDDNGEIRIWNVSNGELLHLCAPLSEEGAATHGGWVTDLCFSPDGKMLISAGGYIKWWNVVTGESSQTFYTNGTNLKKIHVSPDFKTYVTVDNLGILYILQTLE

Paired box protein Pax-8 = Paired box protein Pax-8 (Homo sapiens, UniProt Q06710); experiment: PAX8 transcriptional activity inhibition in RMG-I – RMG-I cells, luciferase, cherry-pick, dose response (AID 687027); format: functional, cell-based;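 also: luciferase reporter driven by Pax8 target thyroperoxidase promoter measured by SteadyGlo luminescence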
Paired box protein Pax-8, sequence (Q06710 whole entry): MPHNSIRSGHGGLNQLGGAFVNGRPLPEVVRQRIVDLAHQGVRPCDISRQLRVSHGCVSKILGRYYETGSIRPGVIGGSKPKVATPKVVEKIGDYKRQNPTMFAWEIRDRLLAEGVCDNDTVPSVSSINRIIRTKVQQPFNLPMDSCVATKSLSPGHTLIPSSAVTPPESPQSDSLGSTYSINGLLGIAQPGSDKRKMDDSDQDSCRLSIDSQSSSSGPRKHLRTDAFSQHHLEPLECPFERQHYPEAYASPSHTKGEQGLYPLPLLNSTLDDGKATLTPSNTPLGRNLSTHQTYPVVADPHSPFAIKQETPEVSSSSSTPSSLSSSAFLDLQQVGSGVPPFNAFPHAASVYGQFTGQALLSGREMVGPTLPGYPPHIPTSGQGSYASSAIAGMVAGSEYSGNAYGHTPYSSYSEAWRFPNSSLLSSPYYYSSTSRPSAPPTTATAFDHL

[2] = OVCAR-3 cell viability loss – plate reader, dry powder samples, PAX8 inhibitor project, dose response (AID 743044); format: functional, cell-based
[3] = P. falciparum Dd2 growth inhibitors, dose response, SYBR Green, cherry-picked samples (AID 1159567); format: functional, cell-based
[4] = toxicity to human hepatoma HepG2 cells – cell-based, cherry-picked samples, cytotoxicity control, dose response (AID 1159577); format: functional
[5] = luciferase reporter signal suppression in cells – H4 neuroglioma cells, luminescence, dose response (AID 1990); format: functional, cell-based
[6] = tested on: Streptococcus sp. 'group A'; experiment: Streptococcus pyogenes SK(-)GAS viability under kanamycin – luminescence, BacTiterGlo, confirmation, counter-screen for streptokinase expression inhibitor project, dose response (AID 1900); format: functional, organism-based
BJ [7] = experiment: BJ-TERT fibroblast viability loss – cell-based, RAS-independent, luminescence, dose response (AID 1933); format: functional; details: Homo sapiens
[8] = Luminescence Cell-Based Dose Response HTS to Identify Inhibitors of 5'UTR Stem-Loop Driven Prion Protein mRNA Translation in H4 Neuroglioblastoma Cells. [Related pubchem assays: 1827 (Project Summary), 1813 (Primary HTS)]; format: functional
[9] = alpha-synuclein stem-loop luciferase translation blockers – H4 neuroglioma cells, luminescence, confirmation (AID 1988); format: functional, cell-based
BJ [10] = experiment: cells; format: functional, cell-based; details: Homo sapiens
[11] = microbe, parasite or virus in culture; format: functional; details: Mycobacterium tuberculosis
BJ [12] = experiment: BJ-TERT-LT-ST fibroblast viability loss – cell-based, RAS-independent, luminescence, dose response (AID 1935); format: functional; details: Homo sapiens;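 also: BJ fibroblasts immortalized with TERT plus LT and ST oncogenes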
[13] = DRD fibroblast viability loss – cell-based, non-viral oncogenic, luminescence, dose response (AID 1934); format: functional; details: Homo sapiens
Streptococcus = experiment: GAS UMAA2166 growth inhibition – luminescence, BacTiterGlo, counter-screen for streptokinase expression inhibitor project, dose response (AID 1915); format: functional, organism-based;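 also: potency for reduction of bacterial viability or growth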
BJ [14] = experiment: growth inhibition of engineered Ras-driven BJ cells – cell-based, alamar blue fluorescence, cherrypicked samples, dose response (AID 2631); format: functional; details: Homo sapiens;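 also: confirmatory dose-response assay in RAS-dependent BJ fibroblasts engineered with TERT, LT and ST, with cytotoxicity read by fluorescence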
INS1 = experiment: INS-1E survival protection against cytokine death – cell-based, luminescence, retest, dose response (AID 449756); format: functional; details: Rattus norvegicus;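 also: cell death triggered by IL-1 beta plus TNF-alpha plus IFN-gamma mixture; protective hits raise ATP signal compared with cytokine alone wells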
[15] = reduction of Shn3 3'UTR-driven luciferase in osteoblasts – cell-based, Clone20 osteoblasts, firefly luciferase, cherry-picked, dose response (AID 624132); format: functional;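 also: firefly luciferase luminescence from reporter carrying the Shn3 3'UTR in osteoblasts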
[16] = loss of viability in HepG2 cells – cell-based, CellTiter-Glo, cherry-picked, cytotoxicity control for Shn3 inhibitor project, dose response (AID 624134); format: functional
[17] = non-specific 3'UTR reporter inhibition in Clone20-Shn3RL – cell-based, Renilla luciferase, cherry-picked, counter-screen for Shn3 inhibitor project, dose response (AID 624133); format: functional

CCOc1ccc(NC(=O)CN(C)C(=O)c2ccc(COc3ccccc3)cc2)cc1OCC
IC50 [1]: > 100000 nM (inactive)

N#Cc1ccc(-c2ccc([C@@H]3[C@@H]4CN(C(=O)c5ccc6c(c5)OCO6)C[C@H]3N4)cc2)cc1
AC50 (Paired box protein Pax-8): 8390 nM (active) | AC50 [2]: 29100 nM (active)

O=C(Cc1cccnc1)N1CCCCN2[C@H](C1)[C@H](c1ccc(C#CC3CCCC3)cc1)[C@@H]2CO
AC50 (Paired box protein Pax-8): 5070 nM (active) | AC50 [2]: 9020 nM (active)

CC(C)N(C[C@H]1N[C@H](CO)[C@@H]1c1ccc(C2=CCCCC2)cc1)C(=O)CN(C)C
AC50 [3]: 1340 nM (active) | AC50 [4]: 10800 nM (active)

Cc1cccc(-c2ccc([C@H]3[C@@H](CO)N4CCCCN(CCC(F)(F)F)C[C@H]34)cc2)c1
AC50 [3]: 1010 nM (active) | AC50 [4]: 8620 nM (active)

O=C(c1ccc2c(c1)OCO2)N1C[C@@H]2N[C@H](C1)[C@@H]2c1ccc(/C=C/c2ccccc2)cc1
AC50 [3]: 4030 nM (active) | AC50 [4]: 11500 nM (active)

O=[N+]([O-])c1ccc(O)c(-c2cc(C(F)(F)F)nc(-c3ccccc3)n2)c1
EC50 [5]: 9180 nM (active) | EC50 [6]: 104 nM (active) | EC50 (BJ [7]): 2440 nM (active) | EC50 [8]: 9130 nM (active) | EC50 [9]: 8040 nM (inconclusive) | EC50 (BJ [10]): 2950 nM (active) | CC50 [11]: 546 nM (active) | EC50 (BJ [12]): 2140 nM (inconclusive) | EC50 [13]: 2960 nM (active) | EC50 (Streptococcus): 254 nM (active) | EC50 (BJ [14]): 571 nM (inconclusive) | AC50 (INS1): 1050 nM (active) | AC50 [15]: 2730 nM (active) | AC50 [16]: 1610 nM (active) | AC50 [17]: 906 nM (active) | AC50 (Paired box protein Pax-8): 811 nM (active)
